Here are results for ten compounds from patent US8604217B2, “Compound, a process for its preparation, a pharmaceutical composition, use of a compound, a method for modulating or regulating serine/threonine kinases and a serine/threonine kinases modulating agent” (Selvita S.A., priority 2009, dated 2013).

Where two headings read alike, the source gives them in different places.

Experiment [1] deals with human colorectal adenocarcinoma SW480 cells. Nature of the experiment: Growth inhibition test (MTS) on SW480 cells. Type of experiment: cell-based. The settings on record: read-out: SW480 ED50. The protocol:
(§1) Two thousand cells of human colorectal adenocarcinoma SW480 were inoculated into each well of a 96-well microplate (manufactured by Corning Corp.), and using DMEM/Ham's F121:1 medium (culture medium) containing 5% fetal calf serum (FCS). Next day, a dimethyl sulfoxide (DMSO) solution of each test compound prepared in a concentration of 10 mmol/L was further diluted with culture medium to the desired concentrations (0.1, 0.5, 1, 2.5, 5 and 10 micromol/L), and the diluted solution was added to each well. The individual wells were further cultured in 5% carbon dioxide at 37° C. for 72 hours. After completion of the culture, 10 μl MTS (3-(4,5-Dimethyl-2-thiazolyl)-5-(carboxymethoxyphenyl)-2-(4-sulfophenyl)-2H-tetrazolium, inner salt assay (CellTiter96® AQueous One Solution Cell Proliferation Assay, Promega) was added to each well, and culturing was performed in 5% carbon dioxide at 37° C. for 2 hours. Using a microplate spectrophotometer (Synergy 2 multi-mode microplate reader (BioTek)), the absorbance of each well was measured at 490 nm. The value for cells not incorporated with a test compound was designated as 100%. By comparing these values with the absorbance difference obtained at the well in which each test compound was added, the cell viability (% viability) after treatment with the test compound was calculated.

Experiment [2] deals with human hepatoma HepG2 cells. Description: Growth inhibition test (MTS) on HepG2 cells. The settings on record: 72 hours, read-out: HepG2 ED50. The experiment is classed as cell-based. The protocol:
as §1, with “human hepatoma HepG2” for “human colorectal adenocarcinoma SW480”, “Corning Corp.)” for “Corning Corp.), and”, “using DMEM” for “using DMEM/Ham's F121:1”, “containing 10%” for “containing 5%”

A further experiment has as its target PIM-1 (Homo sapiens (Human), UniProt P11309). Nature of the experiment: Luminometric kinase assay for PIM1 kinase (Kinase-Glo). The experiment is classed as biochemical. The settings on record: 1 μM ATP, 25 min at RT. As to the method: Kinase assay was performed using luminescent Kinase-Glo® (Promega) system. The Kinase-Glo® Luminescent Kinase Assay Platform provides a homogeneous, high-throughput screening method for measuring kinase activity by quantifying the amount of ATP remaining in solution following a kinase reaction. The luminescent signal is correlated with the amount of ATP present and is inversely correlated with the kinase activity. Appropriate amounts of both kinase and substrate were mixed in 96-well, white wall plate in the reaction buffer (8 mM MOPS/NaOH, pH7.0, 0.2 mM EDTA, 2 mM MgCl2). Tested compounds were diluted in DMSO and serial dilutions starting with 1 μM were added to the palates. Reaction was initiated by adding 1 μM of ATP solution and conducted for 25 min. at RT. Luminescent signal was detected by adding Kinase-Glo® reagent and measured using a microplate spectrophotometer (Synergy 2 multi-mode microplate reader (BioTek)). IC50 values were obtained by fitting sigmoidal dose-response curve (variable slope) using GraphPad Prism software.

Experiment [3] deals with human myelomonocytic, biphenotypic leukemia MV4-11 cells. Nature of the experiment: Growth inhibition test (MTS) on MV4-11 cells. The experiment is classed as cell-based. The settings on record: read-out: MV-4-11 ED50. The protocol:
as §1, with “Ten thousand” for “Two thousand”, “human myelomonocytic, biphenotypic leukemia MV4-11” for “human colorectal adenocarcinoma SW480”, “Corning Corp.)” for “Corning Corp.), and”, “using Iscove's MDM” for “using DMEM/Ham's F121:1”, “containing 10%” for “containing 5%”

The subject of experiment [4] is human acute lymphocytic leukemia E6.1 Jurkat cells. Nature of the experiment: Growth inhibition test (MTS) on E6.1 Jurkat cells. Type of experiment: cell-based. The settings on record: 72 hours, read-out: Jurkat ED50. As to the method:
as §1, with “Twenty thousand” for “Two thousand”, “human acute lumphocytic leukemia E6.1 Jurkat” for “human colorectal adenocarcinoma SW480”, “Corning Corp.)” for “Corning Corp.), and”, “using […]” for “using DMEM/Ham's F121:1”, “containing 10%” for “containing 5%”

Experiment [5] has as its system human prostate adenocarcinoma PC3 cells. Nature of the experiment: Growth inhibition test (MTS) on PC3 cells. Type of experiment: cell-based. The settings on record: for IC50: Homo sapiens, PC-3, 72 hours, read-out: PC-3 ED50.
From the text: as §1, with “human prostate” for “human colorectal”, “adenocarcinoma PC3” for “adenocarcinoma SW480”, “using F12K (Ham's F12:[…] 1:1)” for “using DMEM/Ham's F121:1”, “containing 10%” for “containing 5%”

The subject of experiment [6] is human breast adenocarcinoma MCF7 cells. Description: Growth inhibition test (MTS) on MCF7 cells. The settings on record: read-out: MCF-7 ED50. The experiment is classed as cell-based. As to the method: as §1, with “human breast” for “human colorectal”, “adenocarcinoma MCF7” for “adenocarcinoma SW480”, “using DMEM” for “using DMEM/Ham's F121:1”, “containing 10%” for “containing 5%”

PIM-1, sequence (P11309 whole entry): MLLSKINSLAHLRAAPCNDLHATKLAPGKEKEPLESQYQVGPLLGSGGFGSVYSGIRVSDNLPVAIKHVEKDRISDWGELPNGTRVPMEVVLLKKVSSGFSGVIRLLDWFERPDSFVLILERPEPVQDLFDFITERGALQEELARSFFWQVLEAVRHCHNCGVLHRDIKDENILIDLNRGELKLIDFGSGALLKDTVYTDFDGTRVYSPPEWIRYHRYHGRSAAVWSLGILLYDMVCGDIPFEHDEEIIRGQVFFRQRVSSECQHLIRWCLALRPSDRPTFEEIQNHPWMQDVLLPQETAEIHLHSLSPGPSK

For `Brc1c(Br)c(Br)c2[nH]c(NCCN3CCOCC3)nc2c1Br` [Compound 16, 4,5,6,7-tetrabromo-N-(2-morpholinoethyl)-1H-benzo[d]imidazol-2-amine], the IC50 was found to be 9.68 µM in experiment [1] (72 hours), 8.78 µM in experiment [2] and 0.107 µM on PIM-1.
`Brc1c(Br)c(Br)c2[nH]c(N3CCOCC3)nc2c1Br` [Compound 19, 4,5,6,7-tetrabromo-2-morpholino-1H-benzo[d]imidazole]: the IC50 turned out to be 6.83 µM in experiment [3] (Homo sapiens, MV4-11, 72 hours); 4.63 µM in experiment [4]; 0.0294 µM on PIM-1.
In the case of `Brc1c(Br)c(Br)c2[nH]c(NCCCN3CCCC3)nc2c1Br` [Compound 58], the IC50 in experiment [3] (Homo sapiens, MV4-11, 72 hours) is 1.54 µM; in experiment [2], 2.93 µM; in experiment [4], 3.37 µM; on PIM-1, 0.0257 µM.
As for `CN(C)CCCN1CCN(c2nc3c(Br)c(Br)c(Br)c(Br)c3[nH]2)CC1` [Compound 75, 3-(4-(4,5,6,7-tetrabromo-1H-benzo[d]imidazol-2-yl)piperazin-1-yl)-N,N-dimethylpropan-1-amine], the IC50 in experiment [3] (Homo sapiens, MV4-11, 72 hours) worked out at 3.33 µM; in experiment [2] it was 5.85 µM; in experiment [4] it was 7.79 µM; at PIM-1 it was 0.279 µM.
As for `CN(C)CCCN(Cc1ccccc1)c1nc2c(Br)c(Br)c(Br)c(Br)c2[nH]1` [Compound 85, N-benzyl-4,5,6,7-tetrabromo-N-(3-(dimethylamino)propyl)-1H-benzo[d]imidazol-2-amine], the IC50 in experiment [5] was determined as 5.84 µM; in experiment [3] (Homo sapiens, MV4-11, 72 hours), 2.66 µM; in experiment [2] it was 2.84 µM; in experiment [6] (Homo sapiens, MCF7, 72 hours) it was 4.12 µM; at PIM-1, 0.0653 µM.
`Oc1ccc(CCNc2nc3c(Br)c(Br)c(Br)c(Br)c3[nH]2)cc1` [Compound 243, 4-(2-(4,5,6,7-tetrabromo-1H-benzo[d]imidazol-2-ylamino)ethyl)phenol]: the IC50 in experiment [3] (Homo sapiens, MV4-11, 72 hours) was determined as 6.84 µM; in experiment [2], 9 µM; in experiment [4], 6.12 µM.
Regarding `Brc1c(Br)c(Br)c2[nH]c(N3CCN4CCC3CC4)nc2c1Br` [Compound 350, 2-(4,5,6,7-tetrabromo-1H-benzo[d]imidazol-2-yl)-2,5-diaza-bicyclo[3.2.2]nonane], the IC50 in experiment [5] was 8.48 µM; in experiment [3] (Homo sapiens, MV4-11, 72 hours), 5.52 µM; in experiment [2] it was 5.55 µM; in experiment [6] (Homo sapiens, MCF7, 72 hours) it was 6.55 µM; at PIM-1, 0.0327 µM.
As for `OCCCN1CCN(c2nc3c(Br)c(Br)c(Br)c(Br)c3[nH]2)CC1` [Compound 383, 3-(4-(4,5,6,7-tetrabromo-1H-benzo[d]imidazol-2-yl)piperazin-1-yl)propan-1-ol], the IC50 in experiment [1] (Homo sapiens, SW480, 72 hours) came to 3.72 µM; in experiment [5], 8.3 µM; in experiment [3] (Homo sapiens, MV4-11, 72 hours) it was 3.43 µM; in experiment [2] it was 7.12 µM; in experiment [6] (Homo sapiens, MCF7, 72 hours), 8.32 µM; at PIM-1, 0.0944 µM.
Consider `Brc1c(Br)c(Br)c2[nH]c(N3CCN(Cc4cn5ccccc5n4)CC3)nc2c1Br` [Compound 387, 2-(4-((H-imidazo[1,2-a]pyridin-2-yl)methyl)piperazin-1-yl)-4,5,6,7-tetrabromo-1H-benzo[d]imidazole], for which the IC50 in experiment [1] (72 hours) turned out to be 3.27 µM; in experiment [3] (72 hours) it was 2.13 µM; in experiment [6] (72 hours), 9.25 µM. In addition, the “PC-3 ED50” value in experiment [5] (72 hours) came to 5.49 µM.
Turning to `N=C(N)N1CCN(c2nc3c(Br)c(Br)c(Br)c(Br)c3[nH]2)CC1` [Compound 392, 4-(4,5,6,7-tetrabromo-1H-benzo[d]imidazol-2-yl)piperazine-1-carboxamidine], the IC50 in experiment [1] (Homo sapiens, SW480, 72 hours) was 1.85 µM; in experiment [5], 4.48 µM; in experiment [3] (Homo sapiens, MV4-11, 72 hours), 7.55 µM; on PIM-1 it was 0.00672 µM.
